Format in all cases: cell-based, human
Assay [1] deals with ov-NNMT NCI-H82 cell. As to the kind of experiment: CellTiter-Glo cell viability, ov-NNMT NCI-H82 cell (NNMT overexpressed). The note with it: Homo sapiens, NCI-H82, NCI-H82 overexpressing NNMT protein, intracellular ATP, read-out: inhibitory effect on OV-NNMT NCI-H82 (IC50). (In general: In ATP-based viability assays light output follows the ATP content of the culture.)
For assay [2], the system named is sh-DNMT1 NCI-H82 cell. As to the kind of experiment: CellTiter-Glo cell viability, sh-DNMT1 NCI-H82 cell (DNMT1 knocked down). The following applies: Homo sapiens, NCI-H82, NCI-H82 with DNMT1 knocked down by shRNA, intracellular ATP, read-out: inhibitory effect on sh-DNMT1 NCI-H82 (IC50).
The subject of assay [3] is Con-NCI-H82 cell. Description: CellTiter-Glo cell viability, Con-NCI-H82 cell (empty-vector control). The note with it: Homo sapiens, NCI-H82, NCI-H82 transfected with empty virus vector (control), intracellular ATP, read-out: inhibitory effect on Con-NCI-H82 (IC50).

We go through 31 molecules from US12502386B2, “Nitrogen-containing heterocyclic compound and use thereof” (SHANGHAI SHIJIANG BIOTECHNOLOGY CO., LTD, priority 2022, dated 2025).

As usually defined, the IC50 is the concentration that gives 50% inhibition. For the molecule `COc1ccc2c(c1OC)C(n1cccc1)N1CCc3cc4c(cc3C1=C2)OCO4` (stereo not drawn) [AB36520], the IC50 in assay [1] stood at 2.42 µM; in assay [2] it was 2.62 µM; in assay [3] it was 2.56 µM.

Turning to `CC1c2c(ccc3c2OCO3)C(CCCc2ccccc2)=C2c3cc4c(cc3CCN21)OCO4` (stereo not drawn) [AB35427], the values for the IC50 in assay [1], in assay [2] and in assay [3] were 1.82 µM, 3.24 µM and 0.56 µM, respectively.

In the case of `COc1ccc2c(c1OC)C(C(Cl)(Cl)Cl)N1CCc3cc4c(cc3C1=C2Cc1ccccn1)OCO4` (stereo not drawn) [AB35447], the 50% inhibitory concentration (IC50) in assay [1] is 25.7 µM; in assay [2], 24.3 µM; in assay [3], 26.2 µM.

Regarding `COc1ccc2c(c1N1CCN(C)CC1)C(C1CCCC1)N1CCc3cc4c(cc3C1=C2)OCO4` (stereo not drawn) [AB35519], the concentration for half-maximal inhibition (IC50) in assay [1] amounted to 5.68 µM; in assay [2], 4.68 µM; in assay [3], 2.19 µM.

For `COc1ccc2c(c1N1CCN(C)CC1)C(C(Cl)(Cl)Cl)N1CCc3cc4c(cc3C1=C2)OCO4` (stereo not drawn) [AB35518], the values for the half-inhibitory concentration (IC50) in assay [1], in assay [2] and in assay [3] were 10.1 µM, 13.3 µM and 3.52 µM, respectively.

Regarding `COc1ccc2c(c1OCCNC(=O)OC(C)(C)C)C(C(Cl)(Cl)Cl)N1CCc3cc4c(cc3C1=C2)OCO4` (stereo not drawn) [AB35416], the figures for the IC50 in assay [1], in assay [2] and in assay [3] were 5.23 µM, 6.35 µM and 2.31 µM, respectively.

Turning to `COc1ccc2c(c1OC)C(=C(Cl)Cl)N1CCc3cc4c(cc3C1=C2)OCO4` [AB36512], the IC50 in assay [1] worked out at 4.08 µM; in assay [2] it was 3.96 µM; in assay [3], 4.36 µM.

`C1=C2c3cc4c(cc3CCN2C(C2CCCC2)c2cc3c(cc21)OCO3)OCO4` (stereo not drawn) [AB35467]: the concentration for half-maximal inhibition (IC50) in assay [1] was 13.3 µM; in assay [2], 15.4 µM; in assay [3] it was 5.64 µM.

With `COc1ccc2c(c1OCCCF)C(C)N1CCc3cc4c(cc3C1=C2)OCO4` (stereo not drawn) [AB35485], the figures for the concentration for half-maximal inhibition (IC50) in assay [1], in assay [2] and in assay [3] were 12.3 µM, 16.8 µM and 4.55 µM, respectively.

Regarding `COc1ccc2c(c1OCCF)CN1CCc3cc4c(cc3C1=C2)OCO4` [AB35599], the half-inhibitory concentration (IC50) in assay [1] amounted to 3.43 µM; in assay [2], 6.42 µM; in assay [3], 1.38 µM.

In the case of `COc1ccc2c(c1N1CCCCCC1)CN1CCc3cc4c(cc3C1=C2)OCO4` [AB36493], the IC50 stood at 1.58 µM in assay [1], 1.98 µM in assay [2] and 0.29 µM in assay [3].

Regarding `COc1ccc2c(c1OCCCCCCBr)C(C)N1CCc3cc4c(cc3C1=C2)OCO4` (stereo not drawn) [AB31897], the IC50 was 5.32 µM in assay [1], 4.96 µM in assay [2] and 1.43 µM in assay [3].

With `COc1ccc2c(c1NCCc1ccccc1)C(C(Cl)(Cl)Cl)N1CCc3cc4c(cc3C1=C2)OCO4` (stereo not drawn) [AB35486], the results for the half-inhibitory concentration (IC50) in assay [1], in assay [2] and in assay [3] were 1.34 µM, 2.56 µM and 0.25 µM, respectively.

Turning to `COc1ccc2c(c1OC)C(C(Cl)(Cl)Cl)N1CCc3cc4c(cc3C1=C2CCCc1ccccc1)OCCO4` (stereo not drawn) [AB35484], the IC50 came to 3.56 µM in assay [1], 3.32 µM in assay [2] and 0.77 µM in assay [3].

`COc1ccc2c(c1Br)CN1CCc3cc4c(cc3C1=C2)OCO4` [AB36460]: the half-inhibitory concentration (IC50) in assay [1] amounted to 3.33 µM; in assay [2], 4.58 µM; in assay [3], 1.06 µM.

With `CCC1=C2c3cc4c(cc3CCN2C(C(Cl)(Cl)Cl)c2c1ccc(OC)c2OC)OCO4` (stereo not drawn) [AB35488], the results for the IC50 in assay [1], in assay [2] and in assay [3] were 7.56 µM, 9.32 µM and 1.98 µM, respectively.

Consider `COc1ccc2c(c1OC)C(C)N1CCc3cc4c(cc3C1=C2CCc1ccccc1)OCO4` (stereo not drawn) [AB35498], for which the IC50 in assay [1] worked out at 4.12 µM; in assay [2], 4.38 µM; in assay [3], 1.28 µM.

As for `CCCCCCCCC1=C2c3cc4c(cc3CCN2C(C(Cl)(Cl)Cl)c2c1ccc(OC)c2OC)OCO4` (stereo not drawn) [AB35497], the 50% inhibitory concentration (IC50) in assay [1] stood at 3.56 µM; in assay [2], 5.68 µM; in assay [3] it was 1.25 µM.

Take `CCCCCC1=C2c3cc4c(cc3CCN2C(C(Cl)(Cl)Cl)c2c1ccc(OC)c2OC)OCO4` (stereo not drawn) [AB35418]: the IC50 in assay [1] is 1.26 µM; in assay [2], 2.25 µM; in assay [3], 0.53 µM.

For the molecule `COc1ccc2c(c1OC)C(C)N1CCc3cc4c(cc3C1=C2CCCc1ccccc1)OCO4` (stereo not drawn) [AB35411], the half-maximal inhibitory concentration (IC50) came to 2.51 µM in assay [1], 4.34 µM in assay [2] and 1.24 µM in assay [3].

As to `COc1ccc2c(c1OCCCCCCBr)C(C1CCCC1)N1CCc3cc4c(cc3C1=C2)OCO4` (stereo not drawn) [AB35458], the IC50 was 4.12 µM in assay [1], 5.32 µM in assay [2] and 1.56 µM in assay [3].

On to `COc1ccc2c(c1NCCc1ccccc1)C(C1CCCC1)N1CCc3cc4c(cc3C1=C2)OCO4` (stereo not drawn) [AB35457], for which the IC50 in assay [1] was found to be 2.56 µM; in assay [2], 2.33 µM; in assay [3], 0.96 µM.

As to `COc1ccc2c(c1OC(=O)CC13CC4CC(CC(C4)C1)C3)C(C)N1CCc3cc4c(cc3C1=C2)OCO4` (stereo not drawn) [AB31896], the figures for the 50% inhibitory concentration (IC50) in assay [1], in assay [2] and in assay [3] were 4.53 µM, 3.98 µM and 1.31 µM, respectively.

For the molecule `CCCCCC1=C2c3cc4c(cc3CCN2C(C2CCCC2)c2c1ccc(OC)c2OC)OCO4` (stereo not drawn) [AB35522], the IC50 in assay [1] was found to be 3.68 µM; in assay [2] it was 5.64 µM; in assay [3] it was 1.36 µM.

Regarding `COc1ccc2c(c1OC)C(C1CCCC1)N1CCc3cc4c(cc3C1=C2CCc1ccccc1)OCO4` (stereo not drawn) [AB35448], the IC50 worked out at 2.98 µM in assay [1], 2.88 µM in assay [2] and 1.34 µM in assay [3].

For the molecule `COc1ccc2c(c1OCCNC(=O)OC(C)(C)C)C(C)N1CCc3cc4c(cc3C1=C2)OCO4` (stereo not drawn) [AB35424], the IC50 in assay [1] worked out at 11.2 µM; in assay [2], 10.8 µM; in assay [3], 5.02 µM.

As to `COc1ccc2c(c1OC)C(C(Cl)(Cl)Cl)N1CCc3cc4c(cc3C1=C2CCCCCCCl)OCO4` (stereo not drawn) [AB35524], the results for the IC50 in assay [1], in assay [2] and in assay [3] were 4.32 µM, 4.02 µM and 1.34 µM, respectively.

For the molecule `CCCCOc1c(OC)ccc2c1C(C(Cl)(Cl)Cl)N1CCc3cc4c(cc3C1=C2)OCO4` (stereo not drawn) [AB35494], the IC50 in assay [1] was 2.12 µM; in assay [2], 1.96 µM; in assay [3], 0.43 µM.

As to `COc1ccc2c(c1OCCBr)CN1CCc3cc4c(cc3C1=C2)OCO4` [AB36403], the IC50 in assay [1] was 1.54 µM; in assay [2], 1.46 µM; in assay [3] it was 0.38 µM.

Regarding `CCCCC1=C2c3cc4c(cc3CCN2C(C(Cl)(Cl)Cl)c2c1ccc(OC)c2OC)OCO4` (stereo not drawn) [AB35502], the IC50 in assay [1] was 7.18 µM; in assay [2], 7.02 µM; in assay [3] it was 2.93 µM.

With `COc1ccc2c(c1OCCCN1CCCCC1)C(C)N1CCc3cc4c(cc3C1=C2)OCO4` (stereo not drawn) [AB35442], the 50% inhibitory concentration (IC50) in assay [1] came out at 8.38 µM; in assay [2], 9.32 µM; in assay [3], 9.22 µM.
